From patent publication US20100105666A1, “TRIAZABENZO (A)NAPHTHO(2,1,8-CDE) AZULENE COMPOUNDS” (priority 2007, published 2010)

Key:
[1] = tested on: tyrosine hydroxylase (TH) protein in the locus coeruleus (LC); test: Induction of tyrosine hydroxylase in the locus coeruleus after a single i.p. injection; type: in vivo; settings: three days after injection, Balb/C mouse; for amount of TH in LC section 1, % relative to the mean value of the control group: LC section 1 (anterior-to-posterior), i.p. 20 mg/kg; for amount of TH in LC section 2, % relative to the mean value of the control group: LC section 2, i.p. 20 mg/kg; for amount of TH in LC section 3, % relative to the mean value of the control group: LC section 3, i.p. 20 mg/kg; for amount of TH in LC section 4, % relative to the mean value of the control group: LC section 4, i.p. 20 mg/kg; for amount of TH in LC section 5, % relative to the mean value of the control group: LC section 5, i.p. 20 mg/kg; for amount of TH in LC section 6, % relative to the mean value of the control group: LC section 6, i.p. 20 mg/kg; for amount of TH in LC section 7, % relative to the mean value of the control group: LC section 7, i.p. 20 mg/kg; for amount of TH in LC section 8, % relative to the mean value of the control group: LC section 8, i.p. 20 mg/kg
Excerpt: An investigation is made, among the compounds, for the capability of bringing about an increase in the tyrosine hydroxylase (TH) protein in the locus coeruleus (LC) of the brain of the Balb/C mouse.
The animals used are male mice of the pure Balb/C strain (Charles River Laboratories) aged 7 to 8 weeks at the time of treatment.
The mice are given a single injection, by the intraperitoneal route, of the compound under test, dissolved in 0.04M HCl solution (corresponding control: […]), if the compound is sufficiently soluble, or in olive oil 90%/DMSO 10% (corresponding control: olive oil 90%/DMSO 10%) for compounds that are insoluble in an aqueous medium.
Three days after the injection of each compound, all the animals are sacrificed by decapitation. The extracted brains are then frozen in liquid nitrogen and stored at −80° C.
Coronal sections 8 microns thick are then taken along the posterior-anterior axis of the LC and fixed. The sections are transferred onto Immobilon-P membranes. The TH is measured by immunodetection and image analysis.

[2] = biological target: 5HT receptors (type 5HT2A) (Homo sapiens, UniProt P28223); test: Affinity for receptors, displacement of labelled specific ligand: 5HT2A; type: binding
Excerpt: The receptor affinity was accordingly studied for 28 conventional receptors.

[3] = compound 10^−7M, NADPH, 0-60 minutes; for % metabolic stability predicted using hepatic microsomes, Human: human hepatic microsomes 0.33 mg of prot/ml; for % metabolic stability predicted using hepatic microsomes, Mouse: mouse hepatic microsomes 0.33 mg of prot/ml; for % metabolic stability predicted using hepatic microsomes, Rat: rat hepatic microsomes 0.33 mg of prot/ml
Method: The predicted metabolic stability is tested by incubation of the compounds at a concentration of 10^−7M in the presence of mouse, rat or human hepatic microsomes (0.33 mg of prot/ml). After addition of NADPH (nicotinamide adenine dinucleotide phosphate, reduced form), samples are taken at 0, 5, 15, 30 and 60 minutes. The enzymatic reaction is stopped using methanol (V/V). The protein is precipitated by centrifugation and the supernatant is analysed by LC-MS-MS.

Chain of 5HT receptors (type 5HT2A) (P28223 whole entry): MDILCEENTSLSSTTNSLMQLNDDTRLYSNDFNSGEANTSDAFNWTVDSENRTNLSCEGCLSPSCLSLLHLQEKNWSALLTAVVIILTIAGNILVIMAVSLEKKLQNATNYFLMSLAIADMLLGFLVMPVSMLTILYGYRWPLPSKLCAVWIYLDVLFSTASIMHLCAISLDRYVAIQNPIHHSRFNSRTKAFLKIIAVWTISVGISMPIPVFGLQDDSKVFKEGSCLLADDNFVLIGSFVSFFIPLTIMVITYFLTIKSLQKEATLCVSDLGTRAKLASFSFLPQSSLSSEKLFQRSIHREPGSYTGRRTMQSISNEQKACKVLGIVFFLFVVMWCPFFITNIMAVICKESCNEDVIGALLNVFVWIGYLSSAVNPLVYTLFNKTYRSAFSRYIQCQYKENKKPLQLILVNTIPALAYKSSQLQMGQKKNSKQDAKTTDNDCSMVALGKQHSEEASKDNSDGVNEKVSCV

In the case of `O=C1NCN2c3ccc(Cl)cc3[C@H]3CCN4CCC[C@H]1[C@H]4[C@H]32` (racemic) [Example 1, (5aRS,12aSR,12bSR,12cSR)-7-Chloro-2,3,4,5,5a,10,11,12a,12b,12c-decahydro-1H,12H-3a,9b,11-triazabenzo[a]naphtho[2,1,8-cde]azulen-12-one], the melting point is reported as > 250 °C.

For `O=C1NC(=O)n2c3c(c4cc(Cl)ccc42)CCN2CCCC1C32` (racemic) [Example 3, (12aRS,12bRS)-7-Chloro-2,3,12a,12b-tetrahydro-4H,4H-3a,9b,11-triazabenzo[a]naphtho[2,1,8-cde]azulene-10,12(5H,11H)-dione], the “amount of TH in LC section 1, % relative to the mean value of the control group” value [1] was 55%, the “amount of TH in LC section 2, % relative to the mean value of the control group” value [1] was 58% and the “amount of TH in LC section 3, % relative to the mean value of the control group” value [1] was 47%. The “amount of TH in LC section 4, % relative to the mean value of the control group” value [1] was 48%, the “amount of TH in LC section 5, % relative to the mean value of the control group” value [1] was 33% and the “amount of TH in LC section 6, % relative to the mean value of the control group” value [1] was 19%. The “amount of TH in LC section 7, % relative to the mean value of the control group” value [1] was 5% and the “amount of TH in LC section 8, % relative to the mean value of the control group” value [1] was 3%.

For `O=C1NC(=O)N2c3ccccc3[C@H]3CCN4CCC[C@H]1[C@H]4[C@H]32` (racemic) [Example 4, (5aRS,12aSR,12bSR,12cSR)-2,3,5a,12a,12b,12c-Hexahydro-1H,4H-3a,9b,11-triazabenzo[a]naphtho[2,1,8-cde]azulene-10,12(5H,11H)-dione], the “amount of TH in LC section 1, % relative to the mean value of the control group” value [1] was 88%, the “amount of TH in LC section 2, % relative to the mean value of the control group” value [1] was 78% and the “amount of TH in LC section 3, % relative to the mean value of the control group” value [1] was 70%. For the same compound, the “amount of TH in LC section 4, % relative to the mean value of the control group” value [1] was 58%, the “amount of TH in LC section 5, % relative to the mean value of the control group” value [1] was 27% and the “amount of TH in LC section 6, % relative to the mean value of the control group” value [1] was 14%. For the same compound, the “amount of TH in LC section 7, % relative to the mean value of the control group” value [1] was 9%, the “amount of TH in LC section 8, % relative to the mean value of the control group” value [1] was 3% and the melting point was 255 °C.

For `O=C1NC(=O)n2c3c(c4ccccc42)CCN2CCCC1C32` (racemic) [Example 7, (12aRS,12bRS)-2,3,12a,12b-Tetrahydro-1H,4H-3a,9b,11-triazabenzo[a]naphtho[2,1,8-cde]azulene-10,12(5H,11H)-dione], the “amount of TH in LC section 1, % relative to the mean value of the control group” value [1] was 63%, the “amount of TH in LC section 2, % relative to the mean value of the control group” value [1] was 67% and the “amount of TH in LC section 3, % relative to the mean value of the control group” value [1] was 48%. The “amount of TH in LC section 4, % relative to the mean value of the control group” value [1] was 47%, the “amount of TH in LC section 5, % relative to the mean value of the control group” value [1] was 43% and the “amount of TH in LC section 6, % relative to the mean value of the control group” value [1] was 23%. For the same compound, the “amount of TH in LC section 7, % relative to the mean value of the control group” value [1] was 7%, the “amount of TH in LC section 8, % relative to the mean value of the control group” value [1] was 6% and the “% inhibition 5HT2A” value ([2]; concentration 10^−5 M) was 96%. For the same compound, the “% inhibition 5HT2A” value ([2]; concentration 10^−7 M) was 34%.

In the case of `O=C1NC(=O)N2c3ccccc3C3CCN4CCCC1C4C32` (single isomer, unassigned) [Example 5, (5aS,12aR,12bR,12cR)— or (5aR,12aS,12bS,12cS)-2,3,5a,12a,12b,12c-Hexahydro-1H,4H-3a,9b,11-triazabenzo[a]naphtho[2,1,8-cde]azulene-10,12(5H,11H)-dione (enantiomer α)], the “% metabolic stability predicted using hepatic microsomes, Human” value [3] is reported as 75%, the “% metabolic stability predicted using hepatic microsomes, Mouse” value [3] is reported as 100% and the “% metabolic stability predicted using hepatic microsomes, Rat” value [3] is reported as 90%.

With `O=C1NC(=O)N2c3ccccc3C3CCN4CCCC1C4C32` (single isomer, unassigned) [Example 6, (5aS,12aR,12bR,12cR)— or (5aR,12aS,12bS,12cS)-2,3,5a,12a,12b,12c-Hexahydro-1H,4H-3a,9b,11-triazabenzo[a]naphtho[2,1,8-cde]azulene-10,12(5H,11H)-dione (enantiomer β)] the “% metabolic stability predicted using hepatic microsomes, Human” value [3] was 71%, the “% metabolic stability predicted using hepatic microsomes, Mouse” value [3] was 100% and the “% metabolic stability predicted using hepatic microsomes, Rat” value [3] was 76%.

With “(5aRS,12aSR,12bSR,12cSR)-7-Chloro-2,3,5a,12a,12b,12c-hexahydro-1H,4H-3a,9b,1′-triazabenzo[a]naphtho[2,1,8-cde]azulene-10,12(5H,11H)-dione [Example 2]” the “amount of TH in LC section 1, % relative to the mean value of the control group” value [1] was 53%, the “amount of TH in LC section 2, % relative to the mean value of the control group” value [1] was 54% and the “amount of TH in LC section 3, % relative to the mean value of the control group” value [1] was 46%. The “amount of TH in LC section 4, % relative to the mean value of the control group” value [1] was 35%, the “amount of TH in LC section 5, % relative to the mean value of the control group” value [1] was 25% and the “amount of TH in LC section 6, % relative to the mean value of the control group” value [1] was 14%. For the same compound, the “amount of TH in LC section 7, % relative to the mean value of the control group” value [1] was 5% and the “amount of TH in LC section 8, % relative to the mean value of the control group” value [1] was 3%.
